Data published in patent US4413005A, “Carbamate derivatives and insecticidal, miticidal or nematocidal compositions containing the same” (priority 1981, dated 1983).
Like-named read-outs stand apart in the source and are kept apart here.

How the values were obtained:
[1] = tested on: green rice leafhopper (Nephotettix cincticeps); test: Mortality of female adults of green rice leafhopper on paddy rice (Test Example 2); type: in vivo; conditions: 72 h
Description: An emulsion of specified concentration was prepared from a 50% wettable powder of the compound to be tested and applied to the leaves of paddy rice (one-month-old seedlings) planted in a pot to fully wet the leaves. After the emulsion had been dried, the pot was covered with a net cage, into which 10 female adults of green rice leafhopper (Nephotettix cincticeps) were released. The compound of each specified concentration was tested on two pots.

[2] = Acute oral toxicity in male mice, LD50 by Litchfield-Wilcoxon method (Test Example 5); conditions: mouse, in vivo, mortality on the seventh day
Description: Compounds of this invention were tested on male mice for acute toxicity by oral administration.

[3] = tested on: tobacco cutworm (Spodoptera litura); test: Mortality of third-instar larvae of tobacco cutworm on cabbage (Test Example 1); type: in vivo; conditions: 72 h
Description: Ten third-instar larvae of tobacco cutworm (Spodoptera litura) were placed on a cabbage (one-month-old seedling) planted in a pot, and a 50% emulsion of the compound to be tested was diluted to a specified concentration and applied to the leaves of the plant to fully wet them. The test compound of each specified concentration was tested on two pots.

[4] = tested on: house fly (Musca domestica); test: Local application to house fly, LD50 by Probit method (Test Example 4); type: in vivo; conditions: topical
Description: The compound to be tested was dissolved in a predetermined amount of acetone. The solution was diluted to various concentrations and locally applied to house fly (Musca domestica).

| SMILES | mortality at 200 ppm [1] [%] | mortality at 400 ppm [1] [%] | mortality at 800 ppm [1] [%] | LD50 at 168 h [2] [mg/kg] | mortality at 500 ppm [3] [%] | mortality at 1000 ppm [3] [%] | mortality at 2000 ppm [3] [%] | LD50 ([4]; 24 h) [mg/kg] | mortality at 200 ppm ([1]; 200 ppm active ingredient, from 50% wettable powder, three days later, read-out: Mortality) [%] | mortality at 400 ppm ([1]; 400 ppm active ingredient, from 50% wettable powder, three days later, read-out: Mortality) [%] | mortality at 800 ppm ([1]; 800 ppm active ingredient, from 50% wettable powder, three days later, read-out: Mortality) [%] | LD50 ([4]; house fly, locally applied in acetone, mortality 24 hours later, Probit method, read-out: LD50) [mg/kg] |
| --- | --- | --- | --- | --- | --- | --- | --- | --- | --- | --- | --- | --- |
| CN(CCC#N)SN(C)C(=O)Oc1cccc2c1OC(C)(C)C2 [Example 37] | 65 | 85 | 100 | 65 | 70 | 85 | 100 | 11.8 | – | – | – | – |
| CCOC(=O)CN(SN(C)C(=O)Oc1cccc2c1OC(C)(C)C2)C(C)C [Example 15] | 65 | 90 | 100 | 110 | 75 | 90 | 100 | 33 | – | – | – | – |
| CCCCC(CC)COC(=O)CCN(SN(C)C(=O)Oc1cccc2c1OC(C)(C)C2)C(C)C (stereo not drawn) [Example 26] | 55 | 75 | 100 | 150 | 60 | 80 | 100 | 64.7 | – | – | – | – |
| CCOC(=O)CN(SN(C)C(=O)Oc1cccc2c1OC(C)(C)C2)S(=O)(=O)c1ccc(C)cc1 [Example 48] | 60 | 75 | 95 | 80 | 65 | 80 | 100 | 58.6 | – | – | – | – |
| CCOC(=O)CN(SN(C)C(=O)Oc1cccc2c1OC(C)(C)C2)C(=O)c1ccccc1 [Example 46] | 65 | 85 | 100 | 105 | 70 | 85 | 100 | 33.2 | – | – | – | – |
| CNC(=O)Oc1cccc2ccccc12 [1-Naphthyl-N--methyl-carbamate, reference compound] | – | – | – | – | 60 | 80 | 100 | – | – | – | – | – |
| CCOC(=O)CN(SN(C)C(=O)Oc1cccc2c1OC(C)(C)C2)C(=O)OCC [Example 44, 2,3-dihydro-2,2-dimethylbenzofuran-7-yl N-(N-ethoxycarbonyl-N-ethoxycarbonylmethylaminosulfenyl)-N-methyl-carbamat] | 70 | 90 | 100 | 128 | 75 | 90 | 100 | 16.2 | – | – | – | – |
| CCOC(=O)CCN(CCC(=O)OCC)SN(C)C(=O)Oc1cccc2c1OC(C)(C)C2 [Example 6, 2,3-dihydro-2,2-dimethylbenzofuran-7-yl N-[N,N-bis(ethoxycarbonylethyl)aminosulfenyl]-N-methylcarbamate] | 55 | 75 | 95 | 135 | 60 | 75 | 100 | 38.3 | – | – | – | – |
| CN(SN(CCC#N)C1CCCCC1)C(=O)Oc1cccc2c1OC(C)(C)C2 [Example 42] | 65 | 85 | 100 | 88 | 70 | 85 | 100 | 46 | – | – | – | – |
| CCOC(=O)CN(SN(C)C(=O)Oc1cccc2c1OC(C)(C)C2)C(C)CC (stereo not drawn) [Example 16] | 60 | 80 | 100 | 110 | 65 | 85 | 100 | 44.4 | – | – | – | – |
| CCOC(=O)CN(SN(C)C(=O)Oc1cccc2c1OC(C)(C)C2)c1cccc(C)c1 [Example 21] | 65 | 90 | 100 | 105 | 75 | 90 | 100 | 10.4 | – | – | – | – |
| CCOC(=O)CCCN(CC(=O)OCC)SN(C)C(=O)Oc1cccc2c1OC(C)(C)C2 [Example 10] | 60 | 90 | 100 | 115 | 75 | 85 | 100 | 46 | – | – | – | – |
| CCOC(=O)CN(CCC#N)SN(C)C(=O)Oc1cccc2c1OC(C)(C)C2 [Example 8] | 60 | 85 | 95 | 105 | 75 | 85 | 100 | 24.6 | – | – | – | – |
| CCOC(=O)CN(SN(C)C(=O)Oc1cccc2c1OC(C)(C)C2)c1ccccc1 [Example 13, 2,3-dihydro-2,2-dimethylbenzofuran-7-yl N-(N-phenyl-N-ethoxycarbonylmethylaminosulfenyl)-N-methylcarbamate] | 65 | 90 | 100 | 115 | 75 | 90 | 100 | 12.5 | – | – | – | – |
| CN(SN(CCC#N)CCC#N)C(=O)Oc1cccc2c1OC(C)(C)C2 [Example 7, 2,3-dihydro-2,2-dimethylbenzofuran-7-yl N-[N,N-bis(cyanoethyl)aminosulfenyl]-N-methyl-carbamate] | 50 | 70 | 90 | 75 | 60 | 75 | 100 | 54 | – | – | – | – |
| CCCCN(CC(=O)OCC)SN(C)C(=O)Oc1cccc2c1OC(C)(C)C2 [Example 12, 2,3-dihydro-2,2-dimethylbenzofuran-7-yl N-(N-butyl-N-ethoxycarbonylmethylaminosulfenyl)-N-methyl-carbamate] | 65 | 90 | 100 | 125 | 75 | 90 | 100 | 16.7 | – | – | – | – |
| CN(SN(CC#N)CC#N)C(=O)Oc1cccc2c1OC(C)(C)C2 [Example 1, 2,3-dihydro-2,2-dimethylbenzofuran-7-yl N-[N,N-bis(cyanomethyl)aminosulfenyl]-N-methyl-carbamate] | 50 | 85 | 100 | 58 | 65 | 80 | 100 | 21.3 | – | – | – | – |
| CC(C)N(CC#N)SN(C)C(=O)Oc1cccc2c1OC(C)(C)C2 [Example 34] | 65 | 90 | 100 | 95 | 75 | 90 | 100 | 16.7 | – | – | – | – |
| CCCCN(CCC(=O)OCC)SN(C)C(=O)Oc1cccc2c1OC(C)(C)C2 [Example 27, 2,3-Dihydro-2,2-dimethylbenzofuran-7-yl N-(N-n-butyl-N-ethoxycarbonylethylaminosulfenyl)-N-methylcarbamate] | 65 | 90 | 100 | 105 | 75 | 90 | 100 | 13.8 | – | – | – | – |
| COC(=O)CN(CC(=O)OC)SN(C)C(=O)Oc1cccc2c1OC(C)(C)C2 [Example 3] | 45 | 85 | 100 | 145 | 65 | 80 | 100 | 40 | – | – | – | – |
| CCOC(=O)CN(SN(C)C(=O)Oc1cccc2c1OC(C)(C)C2)C(=O)CCl [Example 45] | 65 | 90 | 100 | 80 | 75 | 90 | 100 | 29.2 | – | – | – | – |
| CCCCN(CCC(=O)OC)SN(C)C(=O)Oc1cccc2c1OC(C)(C)C2 [Example 28] | 65 | 90 | 100 | 89 | 75 | 90 | 100 | 17.7 | – | – | – | – |
| CCOC(=O)CN(SN(C)C(=O)Oc1cccc2c1OC(C)(C)C2)C(=O)Oc1ccccc1 [Example 50] | 60 | 75 | 95 | 95 | 65 | 80 | 100 | 34.7 | – | – | – | – |
| CNC(=O)Oc1ccccc1OC(C)C [2-Isopropoxyphenyl-N--methyl-carbamate, reference compound] | – | – | – | – | – | – | – | – | 0 | 0 | 0 | 22.5 |
